Values joined by “and” are separate entries in the source; they are usually repeats but may differ in a detail not shown here. Equal entries are not always repeated. Structures can show the parent of a compound that is named as a salt. Square brackets hold non-standard residues; d marks the D form. Peptide text beside a SMILES is read from it. * marks the point of attachment. X3 = CC(C)[C@@H](C(=O)*)N(C)CCOCCOCCOCCC(=O)NCCCC[C@H](N)C(=O)O; X1 = CC(C)[C@@H](C(=O)*)N(C)CCCCCC(=O)NCCCC[C@H](N)C(=O)O; Dolaproine = CO[C@@H]([C@@H]1CCCN1)[C@@H](C)C(=O)O; Dil = CC[C@H](C)[C@H](NC)[C@@H](CC(=O)O)OC; Oxazinan2yl(1,2) = C1CCN(*)OC1; NMeV = CN[C@H](C(=O)O)C(C)C
Key:
Caco-2 cells = assay: Cell permeability flux assay using Caco-2 cells; format: in vitro ADME; conditions: basal to apical, 2 hours
Experimental: The cell permeability of a substance can be investigated by means of in vitro testing in a flux assay using Caco-2 cells [M. D. Troutman and D R Thakker, Pharm. Res. 20 (8), 1210-1224 (2003)]. For this purpose, the cells were cultured for 15-16 days on 24-well filter plates. For the determination of permeation, the respective working example was applied in a HEPES buffer to the cells either apically (A) or basally (B) and incubated for 2 hours. After 0 hours and after 2 hours, samples were taken from the cis and trans compartments. The samples were separated by HPLC (Agilent 1200, Boblingen, Germany) using reverse phase columns. The HPLC system was coupled via a Turbo Ion Spray Interface to a Triple Quadropol mass spectrometer API 4000 (Applied Biosystems Applera, Darmstadt, Germany). The permeability was evaluated on the basis of a Papp value, which was calculated using the formula published by Schwab et al. [D. Schwab et al., J. Med. Chem. 46, 1716-1725 (2003)].

tubulin = assay: Fluorescence-based microtubule polymerisation assay (DAPI); format: biochemical
Experimental: Tubulin polymerization was investigated using the “Fluorescence-based Microtubule Polymerisation Assay Kit” from Cytoskeleton (Denver, Colo., USA; order number: BK011). With this assay, GTP is added to unpolymerized tubulin, allowing polymerization to take place spontaneously. The assay is based on the binding of the fluorophore 4′,6-diamidino-2-phenylindole (DAPI) to tubulin. Free and bound DAPI can be differentiated on the basis of different emission spectra.
[…] In addition to the buffer control, paclitaxel, with a polymerization-increasing effect, and vinblastin, with a polymerization inhibiting effect, were run additionally as assay controls. Measurement was carried out using 96-well plates with a half base area. The kinetics of the tubulin polymerization were monitored in a Fluorimeter at 37° C. for 1 hour. The excitation wavelength was 355 nm, and emission was monitored at 460 nm. For the region of linear increase within the first 10 minutes, a calculation was made of the change in fluorescence per minute (AF/min), which represents the polymerization rate of the microtubuli. The potency of the test substances was quantified on the basis of their respective reduction of the polymerization rate.

P-glycoprotein (P-gp) = molecular target: T1, P-glycoprotein (P-gp) (Homo sapiens, UniProt P08183); assay: P-gp substrate flux assay in L-MDR1 cells; format: in vitro ADME; conditions: L-MDR1 cells (P-gp overexpressing LLC-PK1); basal to apical; 2 hours
T1 construct: expressed in transfected cells; host or cells: LLC-PK1 (pig kidney) cells transfected with human MDR1 (L-MDR1 cells)
Experimental: The substrate properties of a substance for P-gp (ABCB1) were determined by means of a flux assay using LLC-PK1 cells which overexpress P-gp (L-MDR1 cells) [A. H. Schinkel et al., J. Clin. Invest. 96, 1698-1705 (1995)]. For this purpose, the LLC-PK1 cells or L-MDR1 cells were cultured on 96-well filter plates for 3-4 days. For determination of the permeation, the respective test substance, alone or in the presence of an inhibitor (such as Ivermectin or Verapamil, for example), was applied in a HEPES buffer to the cells either apically (A) or basally (B) and incubated for 2 hours. After 0 hours and after 2 hours, samples were taken from the cis and trans compartments. The samples were separated by HPLC using reverse phase columns. The HPLC system was coupled via a Turbo Ion Spray Interface to a Triple Quadropol mass spectrometer API 3000 (Applied Biosystems Applera, Darmstadt, Germany). The permeability was evaluated on the basis of a Papp value which was calculated using the formula published by Schwab et al. [D. Schwab et al., J. Med. Chem. 46, 1716-1725 (2003)].

T1 sequence (P08183 whole entry): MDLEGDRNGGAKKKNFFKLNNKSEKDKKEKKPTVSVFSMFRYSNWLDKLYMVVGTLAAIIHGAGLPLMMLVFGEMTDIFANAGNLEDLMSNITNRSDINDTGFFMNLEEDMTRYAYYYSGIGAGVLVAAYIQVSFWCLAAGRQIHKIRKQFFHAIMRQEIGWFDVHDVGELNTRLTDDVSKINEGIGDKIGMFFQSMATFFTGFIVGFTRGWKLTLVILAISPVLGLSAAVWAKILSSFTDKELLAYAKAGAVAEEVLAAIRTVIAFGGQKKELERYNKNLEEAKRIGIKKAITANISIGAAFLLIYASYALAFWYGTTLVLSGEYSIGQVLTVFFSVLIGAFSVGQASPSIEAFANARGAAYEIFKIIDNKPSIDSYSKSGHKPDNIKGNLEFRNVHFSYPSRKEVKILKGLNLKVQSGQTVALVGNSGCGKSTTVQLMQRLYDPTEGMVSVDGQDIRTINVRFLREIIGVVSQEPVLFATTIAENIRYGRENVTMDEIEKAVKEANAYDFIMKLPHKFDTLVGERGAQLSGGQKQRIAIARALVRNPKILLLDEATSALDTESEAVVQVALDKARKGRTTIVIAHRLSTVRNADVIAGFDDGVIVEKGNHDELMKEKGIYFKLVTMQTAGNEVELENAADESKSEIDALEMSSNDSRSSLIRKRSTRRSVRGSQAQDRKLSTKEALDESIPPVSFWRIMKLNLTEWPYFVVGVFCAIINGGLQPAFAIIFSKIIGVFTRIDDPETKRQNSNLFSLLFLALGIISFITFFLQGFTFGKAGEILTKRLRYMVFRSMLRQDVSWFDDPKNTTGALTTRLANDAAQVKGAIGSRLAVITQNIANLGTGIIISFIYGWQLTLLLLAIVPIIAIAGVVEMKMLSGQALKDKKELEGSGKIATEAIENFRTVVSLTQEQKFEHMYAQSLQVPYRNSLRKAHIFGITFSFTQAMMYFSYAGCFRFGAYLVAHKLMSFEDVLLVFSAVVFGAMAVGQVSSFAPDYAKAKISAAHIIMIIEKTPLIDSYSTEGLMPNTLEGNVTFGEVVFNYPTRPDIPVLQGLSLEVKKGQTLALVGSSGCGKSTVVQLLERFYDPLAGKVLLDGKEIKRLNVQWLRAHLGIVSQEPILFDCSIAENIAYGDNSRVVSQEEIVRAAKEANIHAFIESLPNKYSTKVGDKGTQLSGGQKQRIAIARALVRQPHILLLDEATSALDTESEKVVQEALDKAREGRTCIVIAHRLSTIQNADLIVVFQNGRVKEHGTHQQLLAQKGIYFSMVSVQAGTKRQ

For CC[C@H](C)[C@@H]([C@@H](CC(=O)N1CCC[C@H]1[C@H](OC)[C@@H](C)C(=O)N[C@@H](Cc1c[nH]c2ccccc12)C(=O)NCc1ccccc1)OC)N(C)C(=O)[C@@H](NC(=O)[C@H](C(C)C)N(C)CCCC(=O)NNC(=O)CCCCCN1C(=O)CC(SC[C@H](N)C(=O)O)C1=O)C(C)C (stereo partly drawn) [Example 77, N-(4-{2-[6-(3-{[(2R)-2-Amino-2-carboxyethyl]sulphanyl}-2,5-dioxopyrrolidin-1-yl)hexanoyl]hydrazino}-4-oxobutyl)-N-methyl-L-valyl-N-[(3R,4S,5S)-1-{(2S)-2-[(1R,2R)-3-{[(2S)-1-(benzylamino)-3-(1H-indol-3-yl)-1-oxopropan-2-yl]amino}-1-methoxy-2-methyl-3-oxopropyl]pyrrolidin-1-yl}-3-methoxy-5-methyl-1-oxoheptan-4-yl]-N-methyl-L-valinamide], the “Papp (B-A)” value (Caco-2 cells) was 0.7 ×10⁻⁶ cm/s.
CC[C@H](C)[C@@H]([C@@H](CC(=O)N1CCC[C@H]1[C@H](OC)[C@@H](C)C(=O)N[C@@H](Cc1c[nH]c2ccccc12)C(=O)N1CCCCO1)OC)N(C)C(=O)[C@@H](NC(=O)[C@H](C(C)C)N(C)CCCCCC(=O)NCCCC[C@H](N)C(=O)O)C(C)C [Example 115, N-(6-{[(55)-5-Amino-5-carboxypentyl]amino}-6-oxohexyl)-N-methyl-L-valyl-N-[(3R,4S,5S)-1-{(2S)-2-[(1R,2R)-3-{[(2S)-3-(1H-indol-3-yl)-1-(1,2-oxazinan-2-yl)-1-oxopropan-2-yl]amino}-1-methoxy-2-methyl-3-oxopropyl]pyrrolidin-1-yl}-3-methoxy-5-methyl-1-oxoheptan-4-yl]-N-methyl-L-valinamide trifluoroacetate] (X1-V[Dil][Dolaproine]W-{Oxazinan2yl(1,2)}) was tested, and the “Papp (B-A)” value (Caco-2 cells) was 0.2 ×10⁻⁶ cm/s.
In the case of CC[C@H](C)[C@@H]([C@@H](CC(=O)N1CCC[C@H]1[C@H](OC)[C@@H](C)C(=O)N[C@@H](Cc1c[nH]c2ccccc12)C(=O)O)OC)N(C)C(=O)[C@@H](NC(=O)[C@H](C(C)C)N(C)CCCCCC(=O)NCCCC[C@H](N)C(=O)O)C(C)C [Example 116, N-(6-{[(55)-5-Amino-5-carboxypentyl]amino}-6-oxohexyl)-N-methyl-L-valyl-N-[(3R,4S,5S)-1-{(2S)-2-[(1R,2R)-3-{[(1S)-1-carboxy-2-(1H-indol-3-yl)ethyl]amino}-1-methoxy-2-methyl-3-oxopropyl]pyrrolidin-1-yl}-3-methoxy-5-methyl-1-oxoheptan-4-yl]-N-methyl-L-valinamide] (X1-V[Dil][Dolaproine]W-OH), the “Papp (B-A)” value (Caco-2 cells) is reported as 0.1 ×10⁻⁶ cm/s.
With CC[C@H](C)[C@@H]([C@@H](CC(=O)N1CCC[C@H]1[C@H](OC)[C@@H](C)C(=O)N[C@@H](Cc1c[nH]c2ccccc12)C(=O)N1CCCCO1)OC)N(C)C(=O)[C@@H](NC(=O)[C@H](C(C)C)N(C)CCOCCOCCOCCC(=O)NCCCC[C@H](N)C(=O)O)C(C)C [Example 117, N-[(18S)-18-Amino-18-carboxy-12-oxo-3,6,9-trioxa-13-azaoctadec-1-yl]-N-methyl-L-valyl-N-[(3R,4S,5S)-1-{(2S)-2-[(1R,2R)-3-{[(2S)-3-(1H-indol-3-yl)-1-(1,2-oxazinan-2-yl)-1-oxopropan-2-yl]amino}-1-methoxy-2-methyl-3-oxopropyl]pyrrolidin-1-yl}-3-methoxy-5-methyl-1-oxoheptan-4-yl]-N-methyl-L-valinamide trifluoroacetate] (X3-V[Dil][Dolaproine]W-{Oxazinan2yl(1,2)}) the “Tubulin polymerization in the presence of toxophore in [%]. Tubulin polymerization rate at 1 μM MMAF set at 100%” value (“Tubulin polymerization in the presence … at 100%” for short) (tubulin; toxophore 1 μM, trifluoroacetate) was 60% and 78%.
With CC[C@H](C)[C@@H]([C@@H](CC(=O)N1CCC[C@H]1[C@H](OC)[C@@H](C)C(=O)N[C@@H](Cc1ccc(O)cc1)C(=O)N1CCCCO1)OC)N(C)C(=O)[C@@H](NC(=O)[C@H](C(C)C)N(C)CCCCCC(=O)NCCCC[C@H](N)C(=O)O)C(C)C [Example 127, N-(6-{[(55)-5-Amino-5-carboxypentyl]amino}-6-oxohexyl)-N-methyl-L-valyl-N-[(3R,4S,5S)-1-{(2S)-2-[(1R,2R)-3-{[(2S)-3-(4-hydroxyphenyl)-1-(1,2-oxazinan-2-yl)-1-oxopropan-2-yl]amino}-1-methoxy-2-methyl-3-oxopropyl]pyrrolidin-1-yl}-3-methoxy-5-methyl-1-oxoheptan-4-yl]-N-methyl-L-valinamide trifluoroacetate] (X1-V[Dil][Dolaproine]Y-{Oxazinan2yl(1,2)}) the “Papp (B-A)” value (Caco-2 cells) was 0.15 ×10⁻⁶ cm/s.
With CC[C@H](C)[C@@H]([C@@H](CC(=O)N1CCC[C@H]1[C@H](OC)[C@@H](C)C(=O)N[C@@H](Cc1ccccc1)C(=O)O)OC)N(C)C(=O)[C@@H](NC(=O)[C@@H](NC)C(C)C)C(C)C [MMAF, monomethylauristatin F, reference compound] (H-[NMeV]V[Dil][Dolaproine]F-OH) the “Effect on tubulin polymerization (in words)” value (tubulin) was “inhibit tubulin polymerization as a function of their concentration”.
With “N-[6-(3-{[(2R)-2-Amino-2-carboxyethyl]sulphanyl}-2,5-dioxopyrrolidin-1-yl)hexyl]-N-methyl-L-valyl-N-[(3R,4S,5S)-1-{(2S)-2-[(1R,2R)-3-{R1S)-1-carboxy-2-(1H-indol-3-yl)ethyl]amino}-1-methoxy-2-methyl-3-oxopropyl]pyrrolidin-1-yl}-3-methoxy-5-methyl-1-oxoheptan-4-yl]-N-methyl-L-valinamide [Example 75]” the “Tubulin polymerization in the presence … at 100%” value (tubulin; toxophore 1 μM) was 107%, the “Tubulin polymerization in the presence … at 100%” value (tubulin; toxophore 10 μM) was 25% and the “Papp (B-A)” value (Caco-2 cells) was 0.1 ×10⁻⁶ cm/s. The “Papp (B-A)” value (P-glycoprotein (P-gp)) was 0.4 ×10⁻⁶ cm/s.

From patent US8992932B2, “Binder-drug conjugates (ADCs) and use thereof” (Seattle Genetics, Inc., priority 2011, dated 2015)
